Laboratory results as given in ChEMBL document CHEMBL4765432, “Design and synthesis of novel Flavone-based histone deacetylase inhibitors antagonizing activation of STAT3 in breast cancer” (Eur J Med Chem, 2020).
One block for each molecule: values may come before it. Activity calls are given as the source filed them. The rule behind the calls is not given here.

Experiments:
[1] = Inhibition of HDAC in human HeLa cell extracts assessed as inhibition of substrate deacetylation using Boc-Lys (q-Ac)-AMC as substrate incubated for 10 mins followed by substrate addition and measured after 30 mins by fluorescence based assay; assay type: tissue-based
MDA-MB-231 [2] = assay: Induction of apoptosis in human MDA-MB-231 cells assessed as viable cells at 10 uM incubated for 72 hrs by annexinV-FITC and PI staining based flow cytometry analysis (reference value: 90.3 %); assay type: functional; conditions: read-out: Activity
4T1 [3] = assay: Induction of apoptosis in mouse 4T1 cells assessed as late apoptotic cells at 10 uM incubated for 72 hrs by annexinV-FITC and PI staining based flow cytometry analysis (reference value: 2.24 %); assay type: functional
MDA-MB-231 [4] = assay: Induction of apoptosis in human MDA-MB-231 cells assessed as early apoptotic cells at 10 uM incubated for 72 hrs by annexinV-FITC and PI staining based flow cytometry analysis (reference value: 5.57 %); assay type: functional
4T1 [5] = assay: Induction of apoptosis in mouse 4T1 cells assessed as viable cells at 10 uM incubated for 72 hrs by annexinV-FITC and PI staining based flow cytometry analysis (reference value: 91.1 %); assay type: functional; conditions: read-out: Activity
4T1 [6] = assay: Induction of apoptosis in mouse 4T1 cells assessed as early apoptotic cells at 10 uM incubated for 72 hrs by annexinV-FITC and PI staining based flow cytometry analysis (reference value: 1.65 %); assay type: functional
MDA-MB-231 [7] = assay: Induction of apoptosis in human MDA-MB-231 cells assessed as necrotic cells at 10 uM incubated for 72 hrs by annexinV-FITC and PI staining based flow cytometry analysis (reference value: 0.330 %); assay type: functional
MDA-MB-231 [8] = assay: Induction of apoptosis in human MDA-MB-231 cells assessed as late apoptotic cells at 10 uM incubated for 72 hrs by annexinV-FITC and PI staining based flow cytometry analysis (reference value: 3.79 %); assay type: functional
4T1 [9] = assay: Induction of apoptosis in mouse 4T1 cells assessed as necrotic cells at 10 uM incubated for 72 hrs by annexinV-FITC and PI staining based flow cytometry analysis (reference value: 5.00 %); assay type: functional
[10] = biological target: Signal transducer and activator of transcription 3 (Homo sapiens) (UniProt P40763); assay: Inhibition of STAT3 in human MDA-MB-231 cells assessed as reduction in STAT-3 phosphorylation incubated for 8 hrs by Western blot analysis; assay type: cell-based; conditions: dose 2.5-20 µM
[11] = Toxicity in C57BL/6 mouse assessed death of organism at 50 mg/kg, po observed for 20 days; assay type: organism-based; conditions: in vivo, 480 h, time 20 day
[12] = Toxicity in C57BL/6 mouse assessed death of organism at 300 mg/kg, ip observed for 24 hrs; assay type: organism-based; conditions: in vivo
[13] = biological target: Signal transducer and activator of transcription 3 (Homo sapiens) (UniProt P40763); assay: Inhibition of STAT3 in human MDA-MB-231 cells assessed as reduction in STAT-3 phosphorylation at 2.5 to 40 uM incubated for 8 hrs by Western blot analysis; assay type: cell-based; conditions: dose 2.5-40 µM
MDA-MB-231 [14] = assay: Induction of cell cycle arrest in human MDA-MB-231 cells assessed as G0/G1 phase accumulation at 2 uM incubated for 24 hrs by PI staining based flow cytometry analysis (reference value: 29.10 %); assay type: functional
4T1 [15] = assay: Induction of cell cycle arrest in mouse 4T1 cells assessed as G2/M phase accumulation at 2 uM incubated for 24 hrs by PI staining based flow cytometry analysis (reference value: 38.51 %); assay type: functional
4T1 [16] = assay: Induction of cell cycle arrest in mouse 4T1 cells assessed as S phase accumulation at 2 uM incubated for 24 hrs by PI staining based flow cytometry analysis (reference value: 19.43 %); assay type: functional
MDA-MB-231 [17] = assay: Induction of apoptosis in human MDA-MB-231 cells assessed as necrotic cells at 5 uM incubated for 72 hrs by annexinV-FITC and PI staining based flow cytometry analysis (reference value: 0.330 %); assay type: functional
[18] = Genotoxicity in Salmonella typhimurium TA100 by Ames test; assay type: toxicity; conditions: salmonella enterica subsp. enterica serovar typhimurium
4T1 [19] = assay: Induction of cell cycle arrest in mouse 4T1 cells assessed as G0/G1 phase accumulation at 2 uM incubated for 24 hrs by PI staining based flow cytometry analysis (reference value: 42.06 %); assay type: functional
MDA-MB-231 [20] = assay: Induction of apoptosis in human MDA-MB-231 cells assessed as early apoptotic cells at 5 uM incubated for 72 hrs by annexinV-FITC and PI staining based flow cytometry analysis (reference value: 5.57 %); assay type: functional
MDA-MB-231 [21] = assay: Induction of cell cycle arrest in human MDA-MB-231 cells assessed as G2/M phase accumulation at 2 uM incubated for 24 hrs PI staining based by flow cytometry analysis (reference value: 27.08 %); assay type: functional
4T1 [22] = assay: Induction of apoptosis in mouse 4T1 cells assessed as late apoptotic cells at 5 uM incubated for 72 hrs by annexinV-FITC and PI staining based flow cytometry analysis (reference value: 2.24 %); assay type: functional
4T1 [23] = assay: Induction of apoptosis in mouse 4T1 cells implanted in BALB/c mouse assessed as increase in caspase-3 cleavage by immunohistochemistry method; assay type: functional, cell-based
[24] = Genotoxicity in Salmonella typhimurium TA97a by Ames test; assay type: toxicity; conditions: salmonella enterica subsp. enterica serovar typhimurium
4T1 [25] = assay: Induction of apoptosis in mouse 4T1 cells assessed as viable cells at 5 uM incubated for 72 hrs by annexinV-FITC and PI staining based flow cytometry analysis (reference value: 91.1 %); assay type: functional; conditions: read-out: Activity
[26] = Genotoxicity in Salmonella typhimurium WP2 uvrA (pKM 101) by Ames test; assay type: toxicity; conditions: salmonella enterica subsp. enterica serovar typhimurium
4T1 [27] = assay: Induction of apoptosis in mouse 4T1 cells assessed as necrotic cells at 5 uM incubated for 72 hrs by annexinV-FITC and PI staining based flow cytometry analysis (reference value: 5.00 %); assay type: functional
T47D = assay: Cytotoxicity against human T47D cells assessed as reduction in cell viability incubated for 48 hrs by MTT assay; assay type: functional, cell-based
MDA-MB-231 [28] = assay: Induction of apoptosis in human MDA-MB-231 cells assessed as viable cells at 5 uM incubated for 72 hrs by annexinV-FITC and PI staining based flow cytometry analysis (reference value: 90.3 %); assay type: functional; conditions: read-out: Activity
[29] = Genotoxicity in Salmonella typhimurium TA98 by Ames test; assay type: toxicity; conditions: salmonella enterica subsp. enterica serovar typhimurium
4T1 [30] = assay: Induction of apoptosis in mouse 4T1 cells assessed as early apoptotic cells at 5 uM incubated for 72 hrs by annexinV-FITC and PI staining based flow cytometry analysis (reference value: 1.65 %); assay type: functional
MDA-MB-231 [31] = assay: Induction of apoptosis in human MDA-MB-231 cells xenografted in BALB/c mouse assessed as increase in caspase-3 cleavage by immunohistochemistry method; assay type: functional, cell-based
HepG2 = assay: Cytotoxicity against human HepG2 cells assessed as reduction in cell viability incubated for 48 hrs by MTT assay; assay type: functional, cell-based; conditions: HepG2, 48 h
[32] = Genotoxicity in Salmonella typhimurium TA1537 by Ames test; assay type: toxicity; conditions: salmonella enterica subsp. enterica serovar typhimurium
MDA-MB-231 [33] = assay: Induction of cell cycle arrest in human MDA-MB-231 cells assessed as S phase accumulation at 2 uM incubated for 24 hrs by PI staining based flow cytometry analysis (reference value: 43.82 %); assay type: functional
MDA-MB-231 [34] = assay: Induction of apoptosis in human MDA-MB-231 cells assessed as late apoptotic cells at 5 uM incubated for 72 hrs by annexinV-FITC and PI staining based flow cytometry analysis (reference value: 3.79 %); assay type: functional
[35] = Genotoxicity in Salmonella typhimurium TA1535 by Ames test; assay type: toxicity; conditions: salmonella enterica subsp. enterica serovar typhimurium

Signal transducer and activator of transcription 3 (Homo sapiens), sequence (P40763 whole entry): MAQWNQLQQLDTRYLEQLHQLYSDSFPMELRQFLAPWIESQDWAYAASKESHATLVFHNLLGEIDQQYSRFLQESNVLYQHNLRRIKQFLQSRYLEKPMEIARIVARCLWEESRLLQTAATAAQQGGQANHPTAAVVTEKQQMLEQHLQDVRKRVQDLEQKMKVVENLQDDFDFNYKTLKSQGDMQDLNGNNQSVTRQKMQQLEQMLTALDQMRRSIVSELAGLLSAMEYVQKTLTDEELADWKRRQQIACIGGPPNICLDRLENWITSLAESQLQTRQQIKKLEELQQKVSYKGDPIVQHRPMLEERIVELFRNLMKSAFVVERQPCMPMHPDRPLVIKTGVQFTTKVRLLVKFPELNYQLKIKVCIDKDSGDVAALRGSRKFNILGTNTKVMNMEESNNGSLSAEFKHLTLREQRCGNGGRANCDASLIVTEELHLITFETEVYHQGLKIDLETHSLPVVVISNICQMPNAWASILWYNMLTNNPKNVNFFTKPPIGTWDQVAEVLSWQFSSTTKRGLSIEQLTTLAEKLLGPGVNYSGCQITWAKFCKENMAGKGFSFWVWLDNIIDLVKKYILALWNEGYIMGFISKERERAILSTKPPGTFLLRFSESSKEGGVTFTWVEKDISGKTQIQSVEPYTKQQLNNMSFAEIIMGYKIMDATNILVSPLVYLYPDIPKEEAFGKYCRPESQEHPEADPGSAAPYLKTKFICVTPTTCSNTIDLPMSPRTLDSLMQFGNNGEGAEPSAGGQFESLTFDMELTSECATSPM

Compound: O=C(COc1cc(O)c2c(=O)cc(-c3ccccc3)oc2c1)NO
IC50 [1]: > 10 µM

Compound: O=c1cc(-c2ccc(O)cc2)oc2cc(O)cc(O)c12 [APIGENIN]
viability at 10 µM (MDA-MB-231 [2]): 90.1% | Activity (4T1 [3]): 3.22% | Activity (MDA-MB-231 [4]): 8.28% | viability at 10 µM (4T1 [5]): 89.1% | Activity (4T1 [6]): 3.22% | IC50 [1]: > 10 µM | Activity (MDA-MB-231 [7]): 0.02% | Activity (MDA-MB-231 [8]): 1.59% | Activity (4T1 [9]): 4.45%

Compound: COc1ccc(-c2coc3cc(OCCCCCC(=O)NO)cc(O)c3c2=O)cc1
IC50 [1]: > 10 µM

Compound: O=C(CCCCCOc1cc(O)c2c(=O)cc(-c3ccc(OCCN4CCCC4)cc3)oc2c1)NO
IC50 [1]: > 10 µM

Compound: CN(C)CCOc1ccc(-c2cc(=O)c3c(O)cc(OCCCCCCCC(=O)NO)cc3o2)cc1
IC50 [1]: 1.68 µM

Compound: COc1ccc(-c2cc(=O)c3c(O)cc(OCCCCCCCC(=O)NO)cc3o2)cc1
IC50 [1]: > 10 µM

Compound: COc1ccc(-c2coc3cc(OCCCCCCC(=O)NO)ccc3c2=O)cc1
IC50 [1]: > 10 µM

Compound: O=C(CCCOc1cc(O)c2c(=O)cc(-c3ccccc3)oc2c1)NO
IC50 [1]: > 10 µM

Compound: COc1ccc(-c2coc3cc(OCCCCCCC(=O)NO)cc(O)c3c2=O)cc1
IC50 [1]: > 10 µM

Compound: COc1ccc(-c2coc3cc(OCCCCCCCC(=O)NO)cc(O)c3c2=O)cc1
IC50 [1]: > 10 µM

Compound: CN(C)CCCOc1ccc(-c2cc(=O)c3c(O)cc(OCCCCCC(=O)NO)cc3o2)cc1.Cl
inhibition [10]: Dose-dependent effect | Activity [11]: Toxic | Activity [12]: Toxic | IC50 [1]: 0.065 µM

Compound: COc1ccc(-c2cc(=O)c3c(O)cc(OCCCCCCC(=O)NO)cc3o2)cc1
IC50 [1]: 5.25 µM

Compound: COc1ccc(-c2cc(=O)c3c(O)cc(OCCCCCC(=O)NO)cc3o2)cc1
IC50 [1]: 4530 µM

Compound: O=C(CCCCOc1cc(O)c2c(=O)cc(-c3ccccc3)oc2c1)NO
IC50 [1]: 3.33 µM

Compound: COc1ccc(-c2coc3cc(OCCCCCCCC(=O)NO)ccc3c2=O)cc1
IC50 [1]: > 10 µM

Compound: COC(=O)CCCCCOc1cc(O)c2c(=O)cc(-c3ccc(OCCN(C)C)cc3)oc2c1
inhibition [13]: Active

Compound: O=C(CCCCCCC(=O)Nc1ccccc1)NO [VORINOSTAT]
Activity (MDA-MB-231 [14]): 72.99% | Activity (4T1 [15]): 22.68% | Activity (4T1 [16]): 23.63% | Activity (MDA-MB-231 [17]): 0.356% | Activity [18]: Toxic | Activity (4T1 [19]): 53.69% | Activity (MDA-MB-231 [20]): 20.1% | Activity (MDA-MB-231 [21]): 18.69% | Activity (4T1 [22]): 13.4% | Activity (4T1 [23]): Active | Activity [24]: Toxic | viability at 5 µM (4T1 [25]): 35.6% | Activity [26]: Non-Toxic | Activity (4T1 [27]): 2.08% | IC50 (T47D): 2.24 µM | viability at 5 µM (MDA-MB-231 [28]): 53.8% | Activity [29]: Non-Toxic | Activity (4T1 [30]): 48.9% | Activity (MDA-MB-231 [31]): Active | IC50 (HepG2): 2.27 µM | inhibition [13]: inactive | Activity [32]: Non-Toxic | Activity (MDA-MB-231 [33]): 8.32% | Activity (MDA-MB-231 [34]): 25.8% | Activity [35]: Non-Toxic

Next, values leading:

IC50 [1]: 0.93 µM
Compound: O=C(CCCCCCOc1cc(O)c2c(=O)cc(-c3ccc(O)cc3)oc2c1)NO

IC50 [1]: 0.402 µM
Compound: O=C(CCCCCCCOc1cc(O)c2c(=O)cc(-c3ccccc3)oc2c1)NO

IC50 [1]: 0.133 µM
Compound: O=C(CCCCCOc1cc(O)c2c(=O)cc(-c3ccc(OCCN4CCCCC4)cc3)oc2c1)NO

IC50 [1]: 0.732 µM
Compound: CN(C)CCOc1ccc(-c2cc(=O)c3c(O)cc(OCCCCCCC(=O)NO)cc3o2)cc1

IC50 [1]: 0.71 µM
Compound: COc1ccc(-c2coc3cc(OCCCCCC(=O)NO)ccc3c2=O)cc1

IC50 [1]: 0.053 µM
Compound: O=C(CCCCCOc1cc(O)c2c(=O)cc(-c3ccccc3)oc2c1)NO

IC50 [1]: 0.053 µM
Compound: CN(C)CCCOc1ccc(-c2cc(=O)c3c(O)cc(OCCCCCCCC(=O)NO)cc3o2)cc1

IC50 [1]: 0.225 µM
Compound: CN1CCN(CCOc2ccc(-c3cc(=O)c4c(O)cc(OCCCCCC(=O)NO)cc4o3)cc2)CC1

IC50 [1]: 0.297 µM
Compound: O=C(CCCCCOc1cc(O)c2c(=O)cc(-c3ccc(O)cc3)oc2c1)NO

IC50 [1]: 0.615 µM
Compound: O=C(CCCCCCCOc1cc(O)c2c(=O)cc(-c3ccc(O)cc3)oc2c1)NO

IC50 [1]: 0.59 µM
Compound: O=C(CCCCCOc1cc(O)c2c(=O)cc(-c3ccc(OCCN4CCOCC4)cc3)oc2c1)NO

IC50 [1]: 0.088 µM
Compound: O=C(CCCCCCOc1cc(O)c2c(=O)cc(-c3ccccc3)oc2c1)NO

IC50 [1]: 0.025 µM
Compound: CN(C)CCCOc1ccc(-c2cc(=O)c3c(O)cc(OCCCCCCC(=O)NO)cc3o2)cc1
